{
  "source": "patent US20060094741A1",
  "about": "“Remedies for neuropathic pain and model animals of neuropathic pain” (Toray Industries, Inc., a corporation of Japan, priority 1999, published 2006)",
  "key": {"[1]": {"test_system": "pain-related behavior induced by intrathecal administration of Compound 1", "test": "Inhibition of tentative responses for nociception (scratching, biting, licking) induced by intrathecal Compound 1", "assay_type": "in vivo, mouse", "description": "(§1) Scratching, biting, and licking behavior was regarded as an index of tentative responses for nociception, and the duration of such behavior was measured for 5 minutes from 5 minutes after the administration of Compound 1 in a transparent acrylic cage (20×13×10 cm) in a single-blind manner.\n(§2) Mice (ddY; weighing 22 to 25 g when the experiment was started) were kept in a plastic cage at a constant temperature and humidity (22±1° C., 55±5%) under a 12-hour light-dark cycle. The mice had free access to food and water.\n(§3) Compound 1 was dissolved in a physiological saline solution (Ohtsuka Pharmaceutical Co., Ltd.) and was intrathecally administered to the mice without anesthetization. The intrathecal dose of the drug solution per mouse was 4 μl, and a 30 gauge needle and a 25 μl Hamilton syringe were used according to the method disclosed by Hylden and Wilcox (J. L. K. Hylden & G. L. Wilcox, Eur. J. Pharmacol., 67: 313-316, 1980).\n(−)-17cyclopropyl-3,1 4β-dihydroxy-4,5α-epoxy-6β-[N-methyl-trans-3-(3-furyl) acrylamide] morphinan hydrochloride (Compound 2) (H. Nagase et al. Chem. Pharm. Bull. 46, 366, 1998), of which the formula is shown below, [drawing 14] as a selective opioid κ-receptor agonist compound, was intrathecally administered to the mice simultaneously with Compound 1, and the effect thereof on neuropathic pain was evaluated based on tentative responses for nociception, such as scratching, biting, and licking behavior, as indexes. The duration of such behavior was measured for 5 minutes from 5 minutes after the administration of the simultaneous administration of Compound 2 and Compound 1 (15 μg/mouse) in a transparent acrylic cage (20×13×10 cm) in a single-blind manner. Additionally, Compound 2 was dissolved in a physiological saline solution for use.\nIn order to determine the effect of the drug on neuropathic pain, tentative responses for nociception were tested in the case in which a low dose of 1 or 3 nmol/mouse of Compound 2 was intrathecally administered simultaneously with Compound 1 in a manner similar to that of Example 2 and in the case in which Compound 2 was subcutaneously administered so that systemic exposure to the drug was evaluated. […] Since the effectiveness of Compound 2 has also been shown in systemic exposure, it has become clear that Compound 2 is effective even if the drug is not administered topically, that is, even if the drug is administered in various dosage forms which are pharmacologically acceptable."}, "mice (ddY)": {"test_system": "mice (ddY)", "test": "Production of the neuropathic pain animal model: scratching, biting and licking behavior after intrathecal Compound 1", "assay_type": "in vivo", "details": "7.5 μg/mouse or more, measured for 5 minutes from 5 minutes after administration", "description": "as §2\nas §3, with “(+)-4a-(3-hydroxyphenyl)-2-methyl-1,2,3,4,4a, 5,12,12a-octahydrotrans-quinolino [2,3-g]isoquinoline (Compound 1)” for “Compound 1”\nas §1"}, "[2]": {"test_system": "pain associated with zosteriform skin lesions", "test": "Herpetic pain model, allodynia/hyperalgesia associated with zosteriform skin lesions", "assay_type": "in vivo", "details": "orally administered; thirty minutes after the administration", "description": "The therapeutic effect of Compound 2 on pain associated with zoster classified under neuropathic pain was investigated. The evaluation of the therapeutic effect was made using an animal model produced according to a method disclosed in Pain, 86, 95-101, 2000."}, "[3]": {"test_system": "sciatic nerve ligation mouse model", "test": "Sciatic nerve ligation mouse model, allodynia/hyperalgesia by von Frey hairs", "assay_type": "in vivo", "details": "subcutaneous", "description": "The action of Compound 2 in inhibiting neuropathic pain was investigated using another, widely known neuropathic pain model. That is, the action of Compound 2 in a sciatic nerve ligation mouse model was investigated using a method in which the method disclosed by A. B. Malmberg and A. I. Basbaum (Pain, 76, 215-222, 1998) et al. was slightly modified. In order to measure allodynia or hyperalgesia generally observed in neuropathic pain, two von Frey hairs (0.17 and 1.48 g) having different strengths were used. Four weeks following the surgery, the mice were placed in an acrylic cage (90×100×300 mm) and allowed to acclimate for a minimum of 30 minutes. The von Frey hairs were applied perpendicularly to the soles of the hind feet so as to cause slight bending for a duration of approximately 3 seconds. This was repeated 6 times at intervals of several seconds. The reaction of the mouse was given a score in the manner described below.\n2: Immediate escape reaction and flinching of hind paw\nThe reactions of the surgically operated foot and the opposite foot as control were measured before the administration of the drug, and 30 minutes and 2 hours after the administration of the drug. The difference between the score of the surgically operated foot and the score of the control foot was evaluated as allodynia or hyperalgesia. […]"}, "[4]": {"details": "simultaneous intrathecal administration with 15 μg/mouse of Compound 1"}},
  "note": "“Also recorded” adds a separate entry of the source.",
  "data": [
    {"smiles": "NCC(CC(=O)O)c1ccc(Cl)cc1", "note": "(stereo not shown) [Baclofen, reference compound]", "values": [
      {"measurement": "inhibition of tentative responses for nociception induced by Compound 1", "setting": "[1]; [4]", "result": "inhibited dose-dependently"}
    ]},
    {"smiles": "CN1CC[C@@]2(c3cccc(O)c3)Cc3nc4ccccc4cc3C[C@@H]2C1", "note": "[Compound 1, (+)-4a-(3-hydroxyphenyl)-2-methyl-1,2,3,4,4a, 5,12,12a-octahydrotrans-quinolino [2,3-g]isoquinoline]", "values": [
      {"measurement": "tentative responses for nociception (duration of scratching, biting, and licking behavior)", "setting": "mice (ddY)", "result": "increased significantly and dose-dependently"},
      {"measurement": "tentative responses for nociception (duration of scratching, biting, and licking behavior)", "setting": "mice (ddY); listed as Compound I", "result": "increases dose-dependently"}
    ]},
    {"smiles": "CN(C(=O)/C=C/c1ccoc1)[C@@H]1CC[C@@]2(O)[C@H]3Cc4ccc(O)c5c4[C@@]2(CCN3CC2CC2)[C@H]1O5.Cl", "note": "[Compound 2, (−)-17cyclopropyl-3,1 4β-dihydroxy-4,5α-epoxy-6β-[N-methyl-trans-3-(3-furyl)acrylamide] morphinan hydrochloride]", "values": [
      {"measurement": "inhibition of tentative responses for nociception induced by Compound 1", "setting": "[1]; 10 nmol/mouse intrathecal, simultaneously with Compound 1 (15 μg/mouse), compared to physiological saline solution-treated group", "result": "significantly inhibited"},
      {"measurement": "inhibition of tentative responses for nociception induced by Compound 1", "setting": "[1]; low dose of 1 or 3 nmol/mouse intrathecal, simultaneously with Compound 1, hydrochloride", "result": "dose-dependent inhibitory action; also recorded: dose-dependently inhibited"},
      {"measurement": "inhibition of tentative responses for nociception induced by Compound 1", "setting": "[1]; subcutaneously administered (systemic exposure), hydrochloride", "result": "dose-dependent inhibitory action; also recorded: dose-dependently inhibited"},
      {"measurement": "allodynia or hyperalgesia associated with zosteriform skin lesions", "setting": "[2]", "result": "dose-dependently inhibited allodynia or hyperalgesia"},
      {"measurement": "allodynia or hyperalgesia (difference between score of surgically operated foot and control foot)", "setting": "[3]; after 2 hours", "result": "the effect of the drug disappeared"},
      {"measurement": "allodynia or hyperalgesia (difference between score of surgically operated foot and control foot)", "setting": "[3]; thirty minutes after the administration, von Frey hairs 0.17 and 1.48 g", "result": "inhibited allodynia or hyperalgesia"}
    ]},
    {"smiles": "CN1CC[C@]23c4c5ccc(O)c4O[C@H]2[C@@H](O)C=C[C@H]3[C@H]1C5", "note": "[morphine, reference compound]", "values": [
      {"measurement": "inhibition of tentative responses for nociception induced by Compound 1", "setting": "[1]; [4]", "result": "not inhibited at all"}
    ]}
  ]
}
